What was measured:
human fibroblasts = assay: Production of β-endorphin in a culture of human fibroblasts (ELISA); assay type: cell-based; conditions: 0.038-0.600 μg/mL, 48 hr incubation, FIG. 2
Protocol: To carry out the experiments a cell line (pure/isolated culture) of human fibroblasts, adult age (mature), 6a passage was used.
The cells were cultured on appropriate culture plates (24 well) in specific medium culture, containing supplements required for cell maintenance and proliferation. For that purpose, 1×10^5 cells/well were seeded, confluence being reached after a 48 hour incubation, in a wet stove, 5% CO2, 37° C.
Subsequent to confluence (approximately 80% of the total area), the samples to be assessed were added, at the appropriate concentrations and previously established, according to table 1, always keeping a group as CONTROL (with no treatment), for comparative purposes in assessing effectiveness. The samples were previously diluted in proper culture medium.
(§1) After 48 hour incubation (wet stove, 5% CO2, 37° C.) with the samples, the supernatant of cell cultures were collected for assessing the beta-endorphin release. The possible citotoxicity of the compound was also assessed and taken into account. Assessment was qualitative only, by analysis of morphology and cell characteristics.
Quantification of the production of beta-endorphin by the cells in culture was carried out by the immunoenzymatic method ELISA (Enzyme-Linked Immunosorbent Assay), using a kit appropriate for determining beta-endorphin in biological samples. The samples were assessed in quadruplicate.

human keratinocytes = assay: Production of β-endorphin in a culture of human keratinocytes (ELISA); assay type: cell-based; conditions: 0.038-0.600 μg/mL, 48 hr incubation, FIG. 3
Protocol: To carry out the experiments a cell line (pure/isolated culture) of human keranoticytes, adult age (mature), 7th passage was used.
The cells were cultured on appropriate culture plates (24 well) in specific medium culture, containing supplements required for cell maintenance and proliferation. For that purpose, 1×10^5 cells/well were seeded, confluence being reached after 72 hour incubation, in a wet stove, 5% CO2, 37° C.
Subsequent to confluence (approximately 80% of the total area), the samples to be assessed were added, at the appropriate concentrations and previously established, according to table 2, always keeping a group as CONTROL (with no treatment), for comparative purposes in assessing effectiveness. The samples were previously diluted in proper culture medium.
as §1
Quantification of the production of beta-endorphin by the cells in culture was carried out by the immunoenzymatic method ELISA (Enzyme-Linked immunosorbent Assay), using a kit appropriate for determining de beta-endorphin in biological samples. The samples were assessed in quadruplicate.

bovine fosfodiesterase = conditions: in vitro bovine fosfodiesterase; theobromine versus caffeine; cited from earlier work
[1] = system: UVA light-induced wrinkles; conditions: topical; 10 mM; UVA 13.0 J/cm^2; 15-week study; cited from earlier work
adipocytes = conditions: ex vivo adipocytes; caffeine versus theobromine; lypolisis rate by intracelullar glycerol; cited from earlier work

Row | SMILES | production of β-endorphin compared with TC150905MX at the same concentration (human fibroblasts) | production of β-endorphin compared with TC150905MX at the same concentration (human keratinocytes) | power in the ability of increasing AMPc (fosfodiesterase inhibition) (bovine fosfodiesterase) | prevention of UVA light-induced wrinkles [1] | power on noradrenaline-induced lypolisis (adipocytes)
1 | Cn1c(=O)c2c(ncn2C)n(C)c1=O [caffeine] | higher production of β-endorphin | higher production of β-endorphin | identical | effective | equivalent power
2 | Cn1cnc2c1c(=O)[nH]c(=O)n2C [theobromine] |  |  | identical |  | 
